Reference: patent publication US8852647B2, “Combinations of pyrimethanil and silver compounds” (Janssen Pharmaceutica, NV, priority 2007, dated 2014)
Values after ≈ are worked out from the molar mass of the structure shown. Read-outs that look alike come from different tables or passages of the source.

Assays:
[1] = system: Escherichia coli; test: Poison Plate Assay (Experiment 1), Escherichia coli; conditions: for MIC-values (minimum inhibitory concentration): ppm total active ingredient, Tryptose Agar, 27° C., evaluation after one week
[2] = system: Streptomyces griseus (g+); test: Poison Plate Assay (Experiment 2), Streptomyces griseus; assay type: cell-based; conditions: 120 h, Table 3, pyrimethanil with Microsil™, ppm total active ingredient, Tryptose Agar, 27° C., evaluation after 5 days, read-out: MIC-values (minimum inhibitory concentration)
Source text: [formula] wherein: • QA is the concentration of compound A in ppm, acting alone, which produced an end point (e.g. MIC), • Qa is the concentration of compound A in ppm, in the mixture, which produced an end point (e.g. MIC), • QB is the concentration of compound B in ppm, acting alone, which produced an end point (e.g. MIC), • Qb is the concentration of compound B in ppm, in the mixture, which produced an end point (e.g. MIC). When the Synergy Index is greater than 1.0, antagonism is indicated. When the SI is equal to 1.0, additivity is indicated.
Experiment 2: Poison Plate Assay • Name of the primary compound: —pyrimethanil (I) • Name of the silver salt: —Microsil™ from Avecom (Bloemendalestraat 138, 8730 Beernem, Belgium) • Microsil™ is a suspension of colloidal silver metal particles, produced by and clustered on probiotic bacteria. The diameter of the silver particles varies between 3 to 20 nm. The oxidation state of the silver in Microsil™ is 0 (Ag^0). • Microsil™ is produced as a suspension of finely dispersed colloidal Ag^0 particles, stabilized on a biological carrier molecule, in water. The probiotic carrier exists only as a non-viable and stabilizing biocomponent. • Stock solution: 1000 ppm in DMSO • Test combinations: […]

[3] = system: Aspergillus versicolor; test: Poison Plate Assay (Experiment 1), Aspergillus versicolor; conditions: ppm total active ingredient, Glucose Agar, 22° C., evaluation after two weeks; for MIC: Aspergillus versicolor, 336 h
[4] = system: Rhodoturula rubra; test: Poison Plate Assay (Experiment 1), Rhodoturula rubra; conditions: for MIC-values (minimum inhibitory concentration): ppm total active ingredient, Glucose Agar, 22° C., evaluation after two weeks
[5] = Table 2, pyrimethanil with silver perchlorate
[6] = Table 1, pyrimethanil with silver nitrate

With `Cc1cc(C)nc(Nc2ccccc2)n1` [pyrimethanil, 4,6-dimethyl-N-phenyl-2-pyrimidinamine] the MIC ([1]; Escherichia coli, 168 h, read-out: MIC-values (minimum inhibitory concentration)) was 667 µg/mL (≈ 3350 µM), the “MIC-values (minimum inhibitory concentration)” value [1, 5] was 666.67 ppm and the MIC [2] was 66.7 µg/mL. For the same compound, the MIC ([3]; read-out: MIC-values (minimum inhibitory concentration), Table 1, pyrimethanil with silver nitrate) was 667 µg/mL (≈ 3350 µM), the MIC ([3]; read-out: MIC-values (minimum inhibitory concentration), Table 2, pyrimethanil with silver perchlorate) was 375 µg/mL (≈ 1880 µM) and the MIC ([4]; 336 h, read-out: MIC-values (minimum inhibitory concentration)) was 281 µg/mL (≈ 1410 µM). For the same compound, the “MIC-values (minimum inhibitory concentration)” value [4, 5] was 281.25 ppm.

For `O=[N+]([O-])[O-].[Ag+]` [silver nitrate], the “MIC-values (minimum inhibitory concentration)” value [1, 6] was 66.67 ppm, the “MIC-values (minimum inhibitory concentration)” value [3, 6] was 118.65 ppm and the “MIC-values (minimum inhibitory concentration)” value [4, 6] was 118.65 ppm.
